The results in this text go back to patent US20240409585A1, “MACROCYCLIC IMMUNOMODULATORS” (priority 2021, published 2024).

Structures are written as SMILES. Bridge positions count the residues as written; N and C are the ends. Square brackets hold non-standard residues; d marks the D form. Peptide text beside a SMILES is read from it. * marks the point of attachment. ξ: configuration not given here. Trp(1-CH2COOH) = N[C@@H](Cc1cn(CC(=O)O)c2ccccc12)C(=O)O; Phe(4-COOH) = N[C@@H](Cc1ccc(C(=O)O)cc1)C(=O)O; Phe(4-CH2NH2) = NCc1ccc(C[C@H](N)C(=O)O)cc1; Bip = N[C@@H](Cc1ccc(-c2ccccc2)cc1)C(=O)O; Morpholine(3S-CO) = O=C(O)[C@@H]1COCCN1; Phe(3-Me) = Cc1cccc(C[C@H](N)C(=O)O)c1; Val(3-OH) = CC(C)(O)[C@H](N)C(=O)O; 4Pal = N[C@@H](Cc1ccncc1)C(=O)O; Cha = N[C@@H](CC1CCCCC1)C(=O)O; Cit = NC(=O)NCCC[C@H](N)C(=O)O; Ile(3ξ) = CCC(C)[C@H](N)C(=O)O; Thr(3ξ) = CC(O)[C@H](N)C(=O)O; Carboxymethyl = O=C(O)C*; NMeA = CN[C@@H](C)C(=O)O; Pra = C#CC[C@H](N)C(=O)O; Dab = NCC[C@H](N)C(=O)O

The target of the experiment is T1, PE-labeled human PD-L1-Ig binding to Jurkat cell line over-expressing human PD-1 (Jurkat-PD-1) (Homo sapiens, UniProt Q15116).
T1 construct: expressed in transfected cells; host or cells: Jurkat
T1 sequence (Q15116 25-288): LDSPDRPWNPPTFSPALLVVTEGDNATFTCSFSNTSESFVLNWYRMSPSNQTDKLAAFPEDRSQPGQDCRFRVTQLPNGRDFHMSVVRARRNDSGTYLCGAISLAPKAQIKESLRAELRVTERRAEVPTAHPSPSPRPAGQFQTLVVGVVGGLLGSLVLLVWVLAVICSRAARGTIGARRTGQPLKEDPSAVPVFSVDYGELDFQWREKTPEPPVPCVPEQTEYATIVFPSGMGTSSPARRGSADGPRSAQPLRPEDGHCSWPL
Put plainly: Jurkat-PD-1 Cell Binding High-Content Screening Assay (CBA): Method 1. To be noted: Jurkat-hPD-1 cells, PE-labeled PD-L1-Ig 20 nM final; read-out: Jurkat HPDL1 PD1 IC50 (uM) (Method 1).
Regarding `CC(C)C[C@@H]1NC(=O)[C@H](CCN)NC(=O)[C@@H](CC(C)C)NC(=O)[C@H](C)N(C)C(=O)[C@H](CCC(=O)O)NC(=O)[C@H](Cc2ccc(-c3ccccc3)cc2)NC(=O)[C@H](C(C)C)NC(=O)[C@H](Cc2c[nH]c3ccccc23)NC(=O)[C@H](CC(=O)O)NC(=O)[C@H](Cc2ccc(O)cc2)NC(=O)[C@H](Cc2ccccc2)NC(=O)CSC[C@@H](C(=O)N[C@@H](CCC(=O)O)C(N)=O)NC(=O)[C@H]([C@@H](C)O)NC(=O)[C@H](C(C)C)NC1=O` [Compound 1164] ({CH2CO}-FYDWV[Bip]E[NMeA][dL][Dab]LVTCE-NH2; thioether N-14), the IC50 (commonly the point on the concentration scale where inhibition reaches its midpoint) was 0.07 µM.
For `Cc1cccc(C[C@@H]2NC(=O)[C@H](CC(=O)O)NC(=O)[C@H](Cc3ccc(OCC(=O)O)cc3)NC(=O)[C@H]([C@@H](C)O)NC(=O)CSC[C@@H](C(N)=O)NC(=O)[C@H](CCC(=O)O)NC(=O)[C@H](C(C)C)NC(=O)[C@H](CC3CCCCC3)NC(=O)[C@H](CC(N)=O)NC(=O)[C@@H](CC(C)C)NC(=O)[C@H](C)N(C)C(=O)[C@H](Cc3ccc(OCC(=O)O)cc3)NC(=O)[C@H](Cc3ccc(-c4ccccc4)cc3)NC(=O)[C@H](Cc3ccc(OCC(=O)O)cc3)NC2=O)c1` [Compound 1679] ({CH2CO}-TY(Carboxymethyl)D[Phe(3-Me)]Y(Carboxymethyl)[Bip]Y(Carboxymethyl)[NMeA][dL]N[Cha]VEC-NH2; thioether N-14), the IC50 stood at 0.23 µM.
In the case of `C#CC[C@H](NC(=O)CNC(=O)[C@@H]1CSCC(=O)N[C@@H](Cc2ccc(OCC(=O)O)cc2)C(=O)N[C@@H](Cc2ccc(C(=O)O)cc2)C(=O)N[C@@H](CC(=O)O)C(=O)N[C@@H](Cc2c[nH]c3ccccc23)C(=O)N[C@@H](CC(C)C)C(=O)N[C@@H](Cc2ccc(-c3ccccc3)cc2)C(=O)N[C@@H](C(C)C)C(=O)N(C)[C@@H](C)C(=O)N[C@H](CC(C)C)C(=O)N[C@@H](CCN)C(=O)N[C@@H](CC2CCCCC2)C(=O)N[C@@H](C(C)(C)O)C(=O)N[C@@H](CO)C(=O)N1)C(N)=O` [Compound 1933] ({CH2CO}-Y(Carboxymethyl)[Phe(4-COOH)]DWL[Bip]V[NMeA][dL][Dab][Cha][Val(3-OH)]SCG[Pra]-NH2; thioether N-14) it was 0.01 µM; in that of `CC(C)C[C@@H]1NC(=O)[C@H](CCN)NC(=O)[C@@H](CC(C)C)NC(=O)[C@H](C)N(C)C(=O)[C@H](C(C)C)NC(=O)[C@H](Cc2ccc(-c3ccccc3)cc2)NC(=O)[C@H](C(C)C)NC(=O)[C@H](Cc2c[nH]c3ccccc23)NC(=O)[C@H](CC(=O)O)NC(=O)[C@H](Cc2ccc(OCC(=O)O)cc2)NC(=O)[C@H](Cc2ccncc2)NC(=O)CSC[C@@H](C(=O)N[C@@H](C)C(N)=O)NC(=O)[C@H]([C@@H](C)O)NC(=O)[C@H](C(C)C)NC1=O` [Compound 1565] ({CH2CO}-[4Pal]Y(Carboxymethyl)DWV[Bip]V[NMeA][dL][Dab]LVTCA-NH2; thioether N-14), 0.01 µM.
Turning to `CC(C)C[C@@H]1NC(=O)[C@H](CCN)NC(=O)[C@@H](CC(C)C)NC(=O)[C@H](C)N(C)C(=O)[C@H](CCCNC(N)=O)NC(=O)[C@H](Cc2ccc(-c3ccccc3)cc2)NC(=O)[C@H](C(C)C)NC(=O)[C@H](Cc2c[nH]c3ccccc23)NC(=O)[C@H](CC(=O)O)NC(=O)[C@H](Cc2ccc(CN)cc2)NC(=O)[C@H](CC(N)=O)NC(=O)CSC[C@@H](C(=O)N[C@@H](C)C(N)=O)NC(=O)[C@H]([C@@H](C)O)NC(=O)[C@H](C(C)C)NC1=O` [Compound 1322] ({CH2CO}-N[Phe(4-CH2NH2)]DWV[Bip][Cit][NMeA][dL][Dab]LVTCA-NH2; thioether N-14), the IC50 was found to be 0.02 µM.
In the case of `Cc1cccc(C[C@@H]2NC(=O)[C@H](CC(=O)O)NC(=O)[C@H](Cc3ccc(OCC(=O)O)cc3)NC(=O)[C@H](Cc3ccc(OCC(=O)O)cc3)NC(=O)CSC[C@@H](C(N)=O)NC(=O)[C@H](CCC(N)=O)NC(=O)[C@H](C(C)C)NC(=O)[C@H](CC3CCCCC3)NC(=O)[C@H](CCN)NC(=O)[C@@H](CC(C)C)NC(=O)[C@H](C)N(C)C(=O)[C@H](Cc3ccc(OCC(=O)O)cc3)NC(=O)[C@H](Cc3ccc(-c4ccccc4)cc3)NC(=O)[C@H](Cc3ccc(OCC(=O)O)cc3)NC2=O)c1` [Compound 1655] ({CH2CO}-Y(Carboxymethyl)Y(Carboxymethyl)D[Phe(3-Me)]Y(Carboxymethyl)[Bip]Y(Carboxymethyl)[NMeA][dL][Dab][Cha]VQC-NH2; thioether N-14), the IC50 was 0.03 µM.
As for `CC(C)C[C@@H]1NC(=O)[C@H](CCN)NC(=O)[C@@H](CC(C)C)NC(=O)[C@H](C)N(C)C(=O)[C@H](CCC(=O)O)NC(=O)[C@H](Cc2ccc(-c3ccccc3)cc2)NC(=O)[C@H](C(C)C)NC(=O)[C@H](Cc2c[nH]c3ccccc23)NC(=O)[C@H](CC(N)=O)NC(=O)[C@H](Cc2ccc(O)cc2)NC(=O)[C@H](Cc2ccncc2)NC(=O)CSC[C@@H](C(=O)N[C@@H](C)C(N)=O)NC(=O)[C@H](C(C)O)NC(=O)[C@H](C(C)C)NC1=O` (stereo partly drawn) [Compound 2056] ({CH2CO}-[4Pal]YNWV[Bip]E[NMeA][dL][Dab]LV[Thr(3ξ)]CA-NH2; thioether N-14), the IC50 turned out to be 0.04 µM.
Under `CC(C)C[C@@H]1NC(=O)[C@H](CCN)NC(=O)[C@@H](CC(C)C)NC(=O)[C@@H]2COCCN2C(=O)[C@H](C(C)C)NC(=O)[C@H](Cc2ccc(-c3ccccc3)cc2)NC(=O)[C@H](C(C)C)NC(=O)[C@H](Cc2c[nH]c3ccccc23)NC(=O)[C@H](CC(=O)O)NC(=O)[C@H](Cc2ccc(O)cc2)NC(=O)[C@H](CC(N)=O)NC(=O)CSC[C@@H](C(=O)N[C@@H](C)C(N)=O)NC(=O)[C@H]([C@@H](C)O)NC(=O)[C@H](C(C)C)NC1=O` [Compound 1367] ({CH2CO}-NYDWV[Bip]V[Morpholine(3S-CO)][dL][Dab]LVTCA-NH2; thioether N-14) stands 0.39 µM; under `CCC(C)[C@@H]1NC(=O)[C@H](Cc2ccc(-c3ccccc3)cc2)NC(=O)[C@H](C(C)C)NC(=O)[C@H](Cc2cccc(C)c2)NC(=O)[C@H](CC(=O)O)NC(=O)[C@H](Cc2ccc(OCC(=O)O)cc2)NC(=O)[C@H](Cc2ccncc2)NC(=O)CSC[C@@H](C(=O)N[C@@H](CO)C(=O)O)NC(=O)[C@H](CO)NC(=O)[C@H](C(C)C)NC(=O)[C@H](CC2CCCCC2)NC(=O)[C@H](CCN)NC(=O)[C@@H](CC(C)C)NC(=O)[C@H](C)N(C)C1=O` (stereo partly drawn) [Compound 2234] ({CH2CO}-[4Pal]Y(Carboxymethyl)D[Phe(3-Me)]V[Bip][Ile(3ξ)][NMeA][dL][Dab][Cha]VSCS-OH; thioether N-14), 0.02 µM; under `Cc1cccc(C[C@@H]2NC(=O)[C@H](CC(=O)O)NC(=O)[C@H](Cc3ccc(OCC(=O)O)cc3)NC(=O)[C@H](CC(N)=O)NC(=O)CSC[C@@H](C(N)=O)NC(=O)[C@H](CCC(N)=O)NC(=O)[C@H](C(C)C)NC(=O)[C@H](CC3CCCCC3)NC(=O)[C@H](CCN)NC(=O)[C@@H](CC(C)C)NC(=O)[C@H](C)N(C)C(=O)[C@H](Cc3ccc(OCC(=O)O)cc3)NC(=O)[C@H](Cc3ccc(-c4ccccc4)cc3)NC(=O)[C@H](Cc3ccc(OCC(=O)O)cc3)NC2=O)c1` [Compound 1665] ({CH2CO}-NY(Carboxymethyl)D[Phe(3-Me)]Y(Carboxymethyl)[Bip]Y(Carboxymethyl)[NMeA][dL][Dab][Cha]VQC-NH2; thioether N-14), 0.09 µM.
Consider `CC(C)C[C@H]1NC(=O)[C@H](C)N(C)C(=O)[C@H](CCC(=O)O)NC(=O)[C@H](Cc2ccc(-c3ccccc3)cc2)NC(=O)[C@H](C(C)C)NC(=O)[C@H](Cc2c[nH]c3ccccc23)NC(=O)[C@H](CC(N)=O)NC(=O)[C@H](Cc2ccc(O)cc2)NC(=O)[C@H](Cc2ccncc2)NC(=O)CSC[C@@H](C(=O)N[C@@H](C)C(N)=O)NC(=O)[C@H](C(C)O)NC(=O)[C@H](C(C)C)NC(=O)[C@H](CC2CCCCC2)NC(=O)[C@H](CCN)NC1=O` (stereo partly drawn) [Compound 2088] ({CH2CO}-[4Pal]YNWV[Bip]E[NMeA][dL][Dab][Cha]V[Thr(3ξ)]CA-NH2; thioether N-14), for which the IC50 came to 0.17 µM.
In the case of `Cc1cccc(C[C@@H]2NC(=O)[C@H](CC(=O)O)NC(=O)[C@H](Cc3ccc(OCC(=O)O)cc3)NC(=O)[C@H](Cc3ccncc3)NC(=O)CSC[C@@H](C(N)=O)NC(=O)[C@H]([C@@H](C)O)NC(=O)[C@H](C(C)C)NC(=O)[C@H](CC3CCCCC3)NC(=O)[C@H](CCN)NC(=O)[C@@H](CC(C)C)NC(=O)[C@H](C)N(C)C(=O)[C@H](Cc3ccc(OCC(=O)O)cc3)NC(=O)[C@H](Cc3ccc(-c4ccccc4)cc3)NC(=O)[C@H](Cc3ccc(OCC(=O)O)cc3)NC2=O)c1` [Compound 1660] ({CH2CO}-[4Pal]Y(Carboxymethyl)D[Phe(3-Me)]Y(Carboxymethyl)[Bip]Y(Carboxymethyl)[NMeA][dL][Dab][Cha]VTC-NH2; thioether N-14) it was 0.02 µM; in that of `Cc1cccc(C[C@@H]2NC(=O)[C@H](CC(=O)O)NC(=O)[C@H](Cc3ccc(OCC(=O)O)cc3)NC(=O)[C@H]([C@@H](C)O)NC(=O)CSC[C@@H](C(N)=O)NC(=O)[C@H](CC(=O)O)NC(=O)[C@H](C(C)C)NC(=O)[C@H](CC3CCCCC3)NC(=O)[C@H](CCN)NC(=O)[C@@H](CC(C)C)NC(=O)[C@H](C)N(C)C(=O)[C@H](Cc3ccc(OCC(=O)O)cc3)NC(=O)[C@H](Cc3ccc(-c4ccccc4)cc3)NC(=O)[C@H](Cc3ccc(OCC(=O)O)cc3)NC2=O)c1` [Compound 1670] ({CH2CO}-TY(Carboxymethyl)D[Phe(3-Me)]Y(Carboxymethyl)[Bip]Y(Carboxymethyl)[NMeA][dL][Dab][Cha]VDC-NH2; thioether N-14), 0.08 µM; in that of `CC(C)C[C@@H]1NC(=O)[C@H](CCCNC(=N)N)NC(=O)[C@H](Cc2cn(CC(=O)O)c3ccccc23)NC(=O)[C@H](C)N(C)C(=O)[C@H](CCCNC(=N)N)NC(=O)[C@H](Cc2ccc(-c3ccccc3)cc2)NC(=O)[C@H](C(C)C)NC(=O)[C@H](Cc2c[nH]c3ccccc23)NC(=O)[C@H](CC(=O)O)NC(=O)[C@H](Cc2ccc(O)cc2)NC(=O)[C@H](Cc2ccccc2)NC(=O)CSC[C@@H](C(=O)NCC(N)=O)NC(=O)[C@H](CO)NC(=O)[C@H](C(C)C)NC1=O` [Compound 1011] ({CH2CO}-FYDWV[Bip]R[NMeA][Trp(1-CH2COOH)]RLVSCG-NH2; thioether N-14), 0.1 µM.
